# Measurements taken from patent US20030157708A1, “Cell stimulation apparatus and a cell stimulation method” (priority 2001, published 2003).
# Assays:
# Type in all cases: cell-based, mice
# [1] = test system: GABAA receptor β2 subunit; conditions: 7DIV granule cells, FIG. 10C; MK801 25 μM, CNQX 10 μM
# cultured granule cells = assay: Release of NRG into conditioned media, read by CREB-phosphorylation of granule cells; conditions: living cultured granule cells
# Protocol: In D, using cerebellar granule cells, CREB-phosphorylation was checked after the conditioned medium stimulation. Serum-starved cerebellar granule cells were treated (for 5 to 10 minutes) with conditioned media collected from pontine nuclus neuron and granule cell cultures. The conditioned media from pontine nuclei neurons was used for stimulation in a, b and c. In d, e and f, conditioned media were prepared from granule cell culture.
# To detect CREB phosphorylation, 7DIV cultured granule cells were fixed with 4% paraformaldehyde for 10 minutes after conditioned media stimulation for 10 to 15 minutes, and stained with a polyclonal anti-NRG β1 antibody, a polyclonal anti-PCREB antibody (BioLabs). […] Alexa™ dyes (Molecular probe) were used as a secondary antibody.
# The soluble forms released by PMA stimulation (60 minutes) were enriched using a spin column and added into the cultured granule cells. The stimulated granule cells were stained with anti-phospho-CREB antibody after fixation. The conditioned media from the pontine nuclei neurons was used for stimulation (a, b and c) and that from granule cell cultures for stimulation (d, e and f). […] The conditioned media (c and f) should have contained cleaved endogenous and recombinant NRG The subtraction of b from c and e from f indicated CREB-phosphorylation induced by sNRG that was from recombinant mNRG. […]
# [2] = test system: NMDA receptor NR2C subunit; conditions: 7DIV granule cells, MK801 25 μM
# ErbB4 = ErbB4 tyrosine-phosphorylation activity of conditioned media (immunoprecipitation / anti-phosphotyrosine blot); conditions: PMA stimulation for 60 minutes
# Protocol: In B, pontine nuclei neurons and granule cells with and without transfection of the transmembrane form of NRG were prepared and stimulated by PMA for 60 minutes and then the conditioned media were collected. Tyrosin-phosphorylation activity of the conditioned media was examined using cerebellar granule cells. The granule cell cultures were stimulated for 5 to 10 minutes with the conditioned media that were collected and concentrated. Lysates from granule cells were resolved by SDS-PAGE, and the blot was probed with an anti-phosphotyrosine antibody (4G10) after immunoprecipitation with anti-ErbB4 antibody. Tyrosine-phosphorylated bands of 180 kD were observed by stimulation (B). The conditioned media were collected from PN(non-transfected pontine neuclei neurons), tPN(transfected pontine neuclei neurons), GC(non-transfected granule cells), and tGC(transfected-granule cells). The result is summarized in C. The experiments were repeated independently three or four times.
# After electrical stimulation (1 mA, 30˜60V outside the cells) for 30 minutes on […] cells which were transfected with recombinant full length mNRG, the conditioned media obtained from the cells were collected and concentrated using centricon 10 and 100 (Millipore) to cut off large (>100 kd) and small (<10 kd) molecular weight proteins. […]
smiles,measurement,setting,value
N#Cc1cc2[nH]c(=O)c(=O)[nH]c2cc1[N+](=O)[O-] [CNQX],"β2 transcription at 1.0 and 100 Hz stimulation, block",[1],blocked
[Cl-].[K+] [KC1],release of NRG by stimulation,cultured granule cells,could not be observed
C[C@]12N[C@H](Cc3ccccc31)c1ccccc12 [MK801],"NR2C mRNA increase at 100 Hz (high frequency) stimulation, block","[2]; 30 minutes stimulation, TTX 1 μM, Cd 100 μM, EGTA 1 mM",strongly blocked
same,"NR2C elevated transcription at 1 and 100 Hz, block",[2]; FIG. 10C,strongly blocked
same,"β2 transcription at 1.0 and 100 Hz stimulation, block",[1],blocked
"CCCCCCCCCCCCCC(=O)O[C@@H]1[C@@H](C)[C@@]2(O)[C@@H](C=C(CO)C[C@]3(O)C(=O)C(C)=C[C@@H]23)[C@@H]2C(C)(C)[C@]12OC(C)=O [PMA, phorbol-12-myristate-13-acetate]",Tyrosine-phosphorylated bands of 180 kD with conditioned media from mNRG-transfected neurons,ErbB4,clearly observed
